The source of these data is patent publication US8987273B2, “Substituted imidazo[1,2-B]pyridazines” (Bayer Intellectual Property GmbH, priority 2010, dated 2015).

Counter-ions that a name gives are not always drawn.

Assay [1] has as its target His-tagged human recombinant kinase full-length Akt1 (Homo sapiens (Human), UniProt P31749). Description: Akt1 kinase assay (TR-FRET). It counts as biochemical. To be noted: 10 μM ATP; median. An excerpt: Akt1 inhibitory activity of compounds of the present invention was quantified employing the Akt1 TR-FRET assay as described in the following paragraphs. His-tagged human recombinant kinase full-length Akt1 expressed in insect cells was purchased form Invitrogen (part number PV 3599). As substrate for the kinase reaction the biotinylated peptide biotin-Ahx-[…] (C-terminus in amide form) was used which can be purchased e.g. from the company Biosynthan GmbH (Berlin-Buch, Germany).
(§1) For the assay 50 nl of a 100 fold concentrated solution of the test compound in DMSO was pipetted into a black low volume 384 well microtiter plate (Greiner Bio-One, Frickenhausen, Germany), 2 μl of a solution of Akt1 in assay buffer [50 mM TRIS/HCl pH 7.5, 5 mM MgCl2, 1 mM dithiothreitol, 0.02% (v/v) Triton X-100 (Sigma)] were added and the mixture was incubated for 15 min at 22° C. to allow pre-binding of the test compounds to the enzyme before the start of the kinase reaction. Then the kinase reaction was started by the addition of 3 μl of a solution of adenosine-tri-phosphate (ATP, 16.7 μM=>final conc. in the 5 μl assay volume is 10 μM) and substrate (1.67 μM=>final conc. in the 5 μl assay volume is 1 μM) in assay buffer and the resulting mixture was incubated for a reaction time of 60 min at 22° C. The concentration of Akt1 in the assay was adjusted depending of the activity of the enzyme lot and was chosen appropriate to have the assay in the linear range, typical enzyme concentrations were in the range of about 0.05 ng/μl (final conc. in the 5 μl assay volume).
The reaction was stopped by the addition of 5 μl of a solution of HTRF detection reagents (200 nM streptavidine-XL665 [Cisbio] and 1.5 nM anti-phosho-Serine antibody [Millipore, cat. #35-001] and 0.75 nM LANCE Eu-W 1024 labeled anti-mouse IgG antibody [Perkin Elmer]) in an aqueous EDTA-solution (100 mM EDTA, 0.1% (w/v) bovine serum albumin in 50 mM HEPES/NaOH pH 7.5).
(§2) The resulting mixture was incubated 1 h at 22° C. to allow the binding of the biotinylated phosphorylated peptide to the streptavidine-XL665 and the antibodies. Subsequently the amount of phosphorylated substrate was evaluated by measurement of the resonance energy transfer from the anti-mouse-IgG-Eu-Chelate to the streptavidine-XL665. Therefore, the fluorescence emissions at 620 nm and 665 nm after excitation at 350 nm was measured in a HTRF reader, e.g. a Rubystar (BMG Labtechnologies, Offenburg, Germany) or a Viewlux (Perkin-Elmer). The ratio of the emissions at 665 nm and at […] was taken as the measure for the amount of phosphorylated substrate. The data were normalised (enzyme reaction without inhibitor=0% inhibition, all other assay components but no enzyme=100% inhibition).

In assay [2] the target is His-tagged human recombinant kinase full-length Akt2 (Homo sapiens (Human), UniProt P31751). Description: Akt2 kinase assay (TR-FRET). It counts as biochemical. To be noted: 10 μM ATP; median.
Source text: Akt2 inhibitory activity of compounds of the present invention was quantified employing the Akt2 TR-FRET assay as described in the following paragraphs.
His-tagged human recombinant kinase full-length Akt2 expressed in insect cells and activated by PDK1 was purchased form Invitrogen (part number PV 3975). As substrate for the kinase reaction the biotinylated peptide biotin-Ahx-[…] (C-terminus in amide form) was used which can be purchased e.g. from the company Biosynthan GmbH (Berlin-Buch, Germany).
as §1, with “Akt2” for “Akt1”, “0.2” for “0.05”
The reaction was stopped by the addition of 5 μl of a solution of HTRF detection reagents (200 nM streptavidine-XL665 [Cisbio] and 1.5 nM anti-phosho-Serine antibody [Millipore, cat. #35-001] and 0.75 nM LANCE Eu-W 1024 labeled anti-mouse IgG antibody [Perkin Elmer]) in an aqueous EDTA-solution (100 mM EDTA, 0.1%/w/v\ bovine serum albumin in 50 mM HEPES/NaOH pH 7.5).
as §2, with “TR-FRET” for “HTRF”

Assay [3] relates to phospho-AKT at S473 in KPL4 breast tumour cell line. Description: Cellular p-AKT1/2/3-S473 assay. It counts as cell-based. To be noted: KPL4 cells, 2 hours treatment; median; read-out: pAKT-S743 median IC50. How it is done:
The molecular mechanism of action was investigated in a set of experiments to assess the inhibition of the PI3K-AKT-mTOR pathway in responsive cell lines such as KPL4 breast tumour cell line (PIK3CAH1047R, HER2O/E and hormone independent). The phospho-substrates of PI3K-AKT-mTOR axis were used as the read-outs to reflect pathway inhibition. Cells were seeded at 60-80% confluency per well in 96-well cell culture plates. After overnight incubation at 37° C. 5% CO2, cells were treated with compounds and vehicle at 37° C. for 2 hours. […] All measurements where at least done in duplicates and confirmed by independent repetition.
Alternatively pAKT-S473 was measured using the “Akt Duplex” of the MULTI-SPOT® Assay System (Fa. Meso Scale Discovery, Cat# N41100B-1) following manufacturers instructions. Each assay used 20 μg of protein extract and measured total AKT and p-AKT content simultaneously in one well. All measurements where at least done in duplicates and confirmed by independent repetition. Values for P-AKT are expressed as percentage of P-AKT level compared to total-AKT content of the extracts.

A further assay relates to KPL-4 cells. Description: Tumor cell proliferation assay (CellTiter-Glo). It counts as cell-based. As to conditions: KPL4; 72 h drug exposure. As to the method:
Compounds were tested in a cell-based assay that measures the capacity of the compounds to inhibit tumour cell proliferation following a 72 h drug exposure. Cell viability is determined using CellTiter-Glow® (CTG, Promega, cat# G757112/3). The CellTiter-Glo® Luminescent Cell Viability Assay is a homogeneous method to determine the number of viable cells in culture. Detection is based on using the luciferase reaction to measure the amount of ATP from viable cells. The amount of ATP in cells correlates with cell viability. Within minutes after a loss of membrane integrity, cells lose the ability to synthesize ATP, and endogenous ATPases destroy any remaining ATP; thus the levels of ATP fall precipitously.
Cells were plated at 3000-5000 cells/well (depending on the cell lines) in 90 μL growth medium on MTPs (Corning; #3603, black plate, clear flat bottom). For each cell line assayed, cells were plated onto a separate plate for determination of […] at t=0 hour and t=72 hour time points. Following overnight incubation at 37° C., chemiluminescence values for the t=0 samples were determined after adding 10 μl medium and 100 μl CTG solution according to manufacture protocol. Plates for the t=72 hour time points were treated with compounds diluted into growth medium at ten times final concentration added in 10 μL to the cell culture plate. Cells were then incubated for 72 hours at 37° C. Chemiluminescence values for the t=72 hour samples were determined. For data analysis, briefly, data from 24 h plate where used to reflect 100% inhibition of growth (“Ci”) and DMSO control for uninhibited growth (“C0”) and analyzed using MTS software package for IC50 and Hill coefficient. Experiments were controlled using a reference compound as standard.

His-tagged human recombinant kinase full-length Akt1, sequence (P31749 whole entry): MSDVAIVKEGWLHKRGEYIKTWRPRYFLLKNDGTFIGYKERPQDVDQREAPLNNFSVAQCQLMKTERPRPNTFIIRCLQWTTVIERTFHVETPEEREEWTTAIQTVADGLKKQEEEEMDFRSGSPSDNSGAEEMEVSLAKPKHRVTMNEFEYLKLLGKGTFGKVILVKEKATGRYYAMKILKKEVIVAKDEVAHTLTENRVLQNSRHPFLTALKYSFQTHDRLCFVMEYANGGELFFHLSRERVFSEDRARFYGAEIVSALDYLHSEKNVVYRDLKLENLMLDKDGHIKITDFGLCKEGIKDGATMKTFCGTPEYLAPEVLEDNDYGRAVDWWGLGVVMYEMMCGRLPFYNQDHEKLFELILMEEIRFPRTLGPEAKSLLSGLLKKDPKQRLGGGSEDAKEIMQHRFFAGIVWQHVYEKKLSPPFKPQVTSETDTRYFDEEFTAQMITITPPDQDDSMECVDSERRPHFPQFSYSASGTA
His-tagged human recombinant kinase full-length Akt2, sequence (P31751 whole entry): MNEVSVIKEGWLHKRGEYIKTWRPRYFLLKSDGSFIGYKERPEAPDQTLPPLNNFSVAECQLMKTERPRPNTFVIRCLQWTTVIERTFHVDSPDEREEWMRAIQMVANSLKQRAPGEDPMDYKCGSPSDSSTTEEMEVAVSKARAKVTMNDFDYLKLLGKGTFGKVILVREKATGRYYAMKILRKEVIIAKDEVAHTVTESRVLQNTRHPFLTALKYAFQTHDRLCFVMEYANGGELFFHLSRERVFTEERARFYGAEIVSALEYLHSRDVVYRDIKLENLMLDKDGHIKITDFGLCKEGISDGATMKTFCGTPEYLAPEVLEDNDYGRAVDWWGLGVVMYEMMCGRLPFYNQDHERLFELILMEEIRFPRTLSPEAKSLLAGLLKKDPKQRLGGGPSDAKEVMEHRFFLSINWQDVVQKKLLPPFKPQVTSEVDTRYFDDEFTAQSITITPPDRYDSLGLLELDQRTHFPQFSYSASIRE

For the molecule `Cc1cn2nc(-c3ccc(C4(N)CCC4)cc3)c(-c3ccccc3)cc2n1` [Example 1-1, 1-[4-(2-Methyl-7-phenyl-imidazo[1,2-b]pyridazin-6-yl)-phenyl]-cyclobutylamine hydrochloride], the IC50 is 17300 nM in assay [1], 20000 nM in assay [2], 10000 nM in assay [3] and 10000 nM in the assay with KPL-4 cells.
In the case of `N#Cc1cccc(-c2cnc3cc(-c4ccccc4)c(-c4ccc(C5(N)CCC5)cc4)nn23)c1` [Example 3-0, 3-{6-[4-(1-Amino-cyclobutyl)-phenyl]-7-phenyl-imidazo[1,2-b]pyridazin-3-yl}-benzonitrile], the IC50 in assay [1] was found to be 5 nM; in assay [2], 82 nM; in assay [3], 1550 nM; with KPL-4 cells, 1710 nM.
On to `NC1(c2ccc(-c3nn4c(-c5cccc(CO)c5)cnc4cc3-c3ccccc3)cc2)CCC1` [Example 4-5, (3-{6-[4-(1-Amino-cyclobutyl)-phenyl]-7-phenyl-imidazo[1,2-b]pyridazin-3-yl}-phenyl)-methanol], for which the IC50 is 6 nM in assay [1], 37 nM in assay [2], 30 nM in assay [3] and 1310 nM in the assay with KPL-4 cells.
For the molecule `NC1(c2ccc(-c3nn4c(-c5ccc(CO)cc5)cnc4cc3-c3ccccc3)cc2)CCC1` [Example 4-6, (4-{6-[4-(1-Amino-cyclobutyl)-phenyl]-7-phenyl-imidazo[1,2-b]pyridazin-3-yl}-phenyl)-methanol formiate], the IC50 in assay [1] turned out to be 19 nM; in assay [2], 123 nM; in assay [3] it was 30 nM; in the assay on KPL-4 cells it was 1590 nM.
As for `NC1(c2ccc(-c3nn4c(-c5ccc(S(N)(=O)=O)cc5)cnc4cc3-c3ccccc3)cc2)CCC1` [Example 4-7, 4-{6-[4-(1-Amino-cyclobutyl)-phenyl]-7-phenyl-imidazo[1,2-b]pyridazin-3-yl}-benzenesulfonamide hydrocloride], the IC50 in assay [1] was found to be 47 nM; in assay [2], 151 nM; in assay [3], 160 nM; in the assay with KPL-4 cells, 1750 nM.
Turning to `NC1(c2ccc(-c3nn4c(Br)cnc4cc3-c3ccccc3)cc2)CCC1` [Example 4-8, 1-[4-(3-Bromo-7-phenyl-imidazo[1,2-b]pyridazin-6-yl)-phenyl]-cyclobutylamine hydrochloride], the IC50 in assay [1] was 74 nM; in assay [2], 264 nM; in assay [3], 110 nM; in the assay with KPL-4 cells, 2380 nM.
Turning to `NC1(c2ccc(-c3nn4c(-c5ccc(F)c(CO)c5)cnc4cc3-c3ccccc3)cc2)CCC1` [Example 4-9, (5-{6-[4-(1-Amino-cyclobutyl)-phenyl]-7-phenyl-imidazo[1,2-b]pyridazin-3-yl}-2-fluorophenyl)-methanol hydrochloride], the IC50 in assay [1] stood at 9 nM; in assay [2], 92 nM; in assay [3], 40 nM; in the assay with KPL-4 cells, 1560 nM.
The corresponding values for `NC(=O)c1ccc(-c2cnc3cc(-c4ccccc4)c(-c4ccc(C5(N)CCC5)cc4)nn23)cc1` [Example 4-10, 4-{6-[4-(1-Amino-cyclobutyl)-phenyl]-7-phenyl-imidazo[1,2-b]pyridazin-3-yl}-benzamide hydrochloride] are 27 nM, 118 nM, 70 nM and 1260 nM.
In the case of `NC(=O)c1cccc(-c2cnc3cc(-c4ccccc4)c(-c4ccc(C5(N)CCC5)cc4)nn23)c1` [Example 4-11, 3-{6-[4-(1-Amino-cyclobutyl)-phenyl]-7-phenyl-imidazo[1,2-b]pyridazin-3-yl}-benzamide hydrochloride], the IC50 in assay [1] worked out at 13 nM; in assay [2], 68 nM; in assay [3] it was 20 nM; with KPL-4 cells, 1410 nM.
The corresponding values for `NC1(c2ccc(-c3nn4c(-c5cn[nH]c5)cnc4cc3-c3ccccc3)cc2)CCC1` [Example 4-12, 1-{4-[7-Phenyl-3-(1H-pyrazol-4-yl)-imidazo[1,2-b]pyridazin-6-yl]-phenyl}-cyclobutylamine] are 9 nM, 67 nM, 10 nM and 550 nM.
